According to the NIST ThermoML archive (doi:10.1016/j.jct.2007.09.004):

What was measured:
[1] = 101 kPa, Liquid
[2] = relative permittivity at zero frequency (dimensionless); settings: 101 kPa, Liquid, Parallel plate capacitor
[3] = xn = mol fraction of the nth substance listed; settings: 101 kPa, Liquid
[4] = relative permittivity at zero frequency (dimensionless); xn = mol fraction of the nth substance listed; settings: 101 kPa, Liquid, Parallel plate capacitor

CCCOCCO [2-propoxyethanol]
Settings | mass density, 293.15 K [kg/m3] | mass density, 298.15 K [kg/m3] | mass density, 303.15 K [kg/m3] | relative permittivity at zero frequency, 293.15 K | relative permittivity at zero frequency, 298.15 K | relative permittivity at zero frequency, 303.15 K
[1] | 913.31 | 908.19 | 903.11 | – | – | –
[2] | – | – | – | 11.76 | 11.5 | 11.19

CCCOCCO [2-propoxyethanol] + OCCOCCO
Settings | mass density, 293.15 K [kg/m3] | mass density, 298.15 K [kg/m3] | mass density, 303.15 K [kg/m3] | relative permittivity at zero frequency, 293.15 K | relative permittivity at zero frequency, 298.15 K | relative permittivity at zero frequency, 303.15 K
[3], x1 = 0.0436 | 1106.38 | 1102.72 | 1098.89 | – | – | –
[3], x1 = 0.1 | 1093.5 | 1089.56 | 1085.52 | – | – | –
[3], x1 = 0.2007 | 1071 | 1066.79 | 1062.47 | – | – | –
[3], x1 = 0.2997 | 1049.58 | 1045.22 | 1040.76 | – | – | –
[3], x1 = 0.3999 | 1028.62 | 1024.11 | 1019.56 | – | – | –
[3], x1 = 0.4968 | 1008.87 | 1004.21 | 999.53 | – | – | –
[3], x1 = 0.6002 | 988.3 | 983.48 | 978.63 | – | – | –
[3], x1 = 0.6985 | 969.23 | 964.21 | 959.16 | – | – | –
[3], x1 = 0.7998 | 950.04 | 944.82 | 939.65 | – | – | –
[3], x1 = 0.8992 | 931.65 | 926.35 | 921.14 | – | – | –
[3], x1 = 0.9499 | 922.4 | 917.14 | 911.97 | – | – | –
[3], x1 = 1 | 913.31 | 908.19 | 903.11 | – | – | –
[4], x1 = 0.0435 | – | – | – | 31.3 | 30.42 | 29.5
[4], x1 = 0.0998 | – | – | – | 30.58 | 29.69 | 28.76
[4], x1 = 0.197 | – | – | – | 29.18 | 28.31 | 27.4
[4], x1 = 0.2962 | – | – | – | 27.57 | 26.74 | 25.88
[4], x1 = 0.3996 | – | – | – | 25.72 | 24.95 | 24.14
[4], x1 = 0.4964 | – | – | – | 23.82 | 23.13 | 22.39
[4], x1 = 0.5955 | – | – | – | 21.73 | 21.13 | 20.46
[4], x1 = 0.6996 | – | – | – | 19.43 | 18.88 | 18.29
[4], x1 = 0.8001 | – | – | – | 17.06 | 16.58 | 16.06
[4], x1 = 0.8999 | – | – | – | 14.55 | 14.13 | 13.7
[4], x1 = 0.9499 | – | – | – | 13.2 | 12.83 | 12.46
[4], x1 = 1 | – | – | – | 11.76 | 11.5 | 11.19

CCCOCCO [2-propoxyethanol] + OCCOCCOCCO
Settings | mass density, 293.15 K [kg/m3] | mass density, 298.15 K [kg/m3] | mass density, 303.15 K [kg/m3] | relative permittivity at zero frequency, 293.15 K | relative permittivity at zero frequency, 298.15 K | relative permittivity at zero frequency, 303.15 K
[3], x1 = 0.0413 | 1116.67 | 1112.44 | 1108.49 | – | – | –
[3], x1 = 0.1061 | 1105.37 | 1100.97 | 1096.78 | – | – | –
[3], x1 = 0.1986 | 1088.75 | 1084.08 | 1079.65 | – | – | –
[3], x1 = 0.2999 | 1069.72 | 1064.9 | 1060.23 | – | – | –
[3], x1 = 0.3999 | 1050.01 | 1045.15 | 1040.34 | – | – | –
[3], x1 = 0.5 | 1029.46 | 1024.57 | 1019.67 | – | – | –
[3], x1 = 0.6 | 1008.1 | 1003.16 | 998.18 | – | – | –
[3], x1 = 0.7002 | 985.9 | 980.84 | 975.77 | – | – | –
[3], x1 = 0.8 | 962.85 | 957.69 | 952.55 | – | – | –
[3], x1 = 0.9 | 938.69 | 933.46 | 928.29 | – | – | –
[3], x1 = 0.95 | 926.18 | 920.99 | 915.81 | – | – | –
[3], x1 = 1 | 913.31 | 908.19 | 903.11 | – | – | –
[4], x1 = 0.0501 | – | – | – | 23.33 | 22.71 | 22.07
[4], x1 = 0.1003 | – | – | – | 22.93 | 22.33 | 21.68
[4], x1 = 0.2005 | – | – | – | 22.09 | 21.51 | 20.89
[4], x1 = 0.2999 | – | – | – | 21.25 | 20.64 | 20.02
[4], x1 = 0.4001 | – | – | – | 20.35 | 19.66 | 19.06
[4], x1 = 0.5 | – | – | – | 19.33 | 18.59 | 18.02
[4], x1 = 0.6002 | – | – | – | 18.11 | 17.41 | 16.88
[4], x1 = 0.7002 | – | – | – | 16.71 | 16.13 | 15.63
[4], x1 = 0.8 | – | – | – | 15.16 | 14.73 | 14.28
[4], x1 = 0.9 | – | – | – | 13.53 | 13.18 | 12.78
[4], x1 = 0.95 | – | – | – | 12.69 | 12.36 | 11.99
[4], x1 = 1 | – | – | – | 11.76 | 11.5 | 11.19

CCCOCCO [2-propoxyethanol] + OCCOCCOCCOCCO
Settings | mass density, 293.15 K [kg/m3] | mass density, 298.15 K [kg/m3] | mass density, 303.15 K [kg/m3] | relative permittivity at zero frequency, 293.15 K | relative permittivity at zero frequency, 298.15 K | relative permittivity at zero frequency, 303.15 K
[3], x1 = 0.05 | 1116.81 | 1113.41 | 1110.02 | – | – | –
[3], x1 = 0.0996 | 1109.94 | 1106.38 | 1102.89 | – | – | –
[3], x1 = 0.1997 | 1095.15 | 1091.4 | 1087.69 | – | – | –
[3], x1 = 0.3 | 1079.09 | 1075.16 | 1071.19 | – | – | –
[3], x1 = 0.4012 | 1061.43 | 1057.31 | 1053.07 | – | – | –
[3], x1 = 0.5 | 1042.6 | 1038.25 | 1033.77 | – | – | –
[3], x1 = 0.6 | 1021.64 | 1017.06 | 1012.39 | – | – | –
[3], x1 = 0.7 | 998.51 | 993.75 | 988.93 | – | – | –
[3], x1 = 0.8 | 973.03 | 968.09 | 963.16 | – | – | –
[3], x1 = 0.9 | 944.82 | 939.77 | 934.7 | – | – | –
[3], x1 = 0.95 | 929.54 | 924.43 | 919.34 | – | – | –
[3], x1 = 1 | 913.31 | 908.19 | 903.11 | – | – | –
[4], x1 = 0.05 | – | – | – | 20.13 | 19.58 | 19.01
[4], x1 = 0.1 | – | – | – | 19.82 | 19.26 | 18.68
[4], x1 = 0.2 | – | – | – | 19.18 | 18.62 | 18.05
[4], x1 = 0.3002 | – | – | – | 18.49 | 17.95 | 17.39
[4], x1 = 0.4001 | – | – | – | 17.73 | 17.21 | 16.69
[4], x1 = 0.5003 | – | – | – | 16.88 | 16.4 | 15.91
[4], x1 = 0.6 | – | – | – | 15.95 | 15.53 | 15.07
[4], x1 = 0.7002 | – | – | – | 14.99 | 14.61 | 14.18
[4], x1 = 0.7999 | – | – | – | 14.01 | 13.64 | 13.24
[4], x1 = 0.9 | – | – | – | 12.96 | 12.62 | 12.26
[4], x1 = 0.9501 | – | – | – | 12.38 | 12.07 | 11.73
[4], x1 = 1 | – | – | – | 11.76 | 11.5 | 11.19

OCCOCCO [diethylene glycol]
Settings | mass density, 293.15 K [kg/m3] | mass density, 298.15 K [kg/m3] | mass density, 303.15 K [kg/m3] | relative permittivity at zero frequency, 293.15 K | relative permittivity at zero frequency, 298.15 K | relative permittivity at zero frequency, 303.15 K
[1] | 1116.38 | 1113.03 | 1109.47 | – | – | –
[2] | – | – | – | 31.81 | 30.95 | 30.03

OCCOCCO [diethylene glycol] + CCCOCCO
x2 = 0
Settings | mass density, 293.15 K [kg/m3] | mass density, 298.15 K [kg/m3] | mass density, 303.15 K [kg/m3] | relative permittivity at zero frequency, 293.15 K | relative permittivity at zero frequency, 298.15 K | relative permittivity at zero frequency, 303.15 K
[3] | 1116.38 | 1113.03 | 1109.47 | – | – | –
[4] | – | – | – | 31.81 | 30.95 | 30.03

OCCOCCOCCO [triethylene glycol]
Settings | mass density, 293.15 K [kg/m3] | mass density, 298.15 K [kg/m3] | mass density, 303.15 K [kg/m3] | relative permittivity at zero frequency, 293.15 K | relative permittivity at zero frequency, 298.15 K | relative permittivity at zero frequency, 303.15 K
[1] | 1123.74 | 1119.66 | 1115.83 | – | – | –
[2] | – | – | – | 23.69 | 23.07 | 22.43

OCCOCCOCCO [triethylene glycol] + CCCOCCO
x2 = 0
Settings | mass density, 293.15 K [kg/m3] | mass density, 298.15 K [kg/m3] | mass density, 303.15 K [kg/m3] | relative permittivity at zero frequency, 293.15 K | relative permittivity at zero frequency, 298.15 K | relative permittivity at zero frequency, 303.15 K
[3] | 1123.74 | 1119.66 | 1115.83 | – | – | –
[4] | – | – | – | 23.69 | 23.07 | 22.43
